“And” between values parts separate entries of the source, which are not always exact repeats. Identical values can stand only once. Starred links: 1 amine or outer side, 2 acyl side, 3 side chain; linkers in the order of their positions; H or OH if unused. Non-standard residues stand in square brackets, D forms with d. No end group written: not given here. *: point of attachment. E(OMe) = COC(=O)CC[C@H](N[*:1])C(=O)[*:2]; D(OMe) = COC(=O)C[C@H](N[*:1])C(=O)[*:2]; code Z = not defined here; Cbz = O=C(OCc1ccccc1)*; CH2F = FC*
Tests used:
[1] = system: FDDKI mice and WT littermates; assay: Novel object recognition (NOR) test after injection in the lateral ventricle; type: in vivo
[2] = system: hippocampal slices of FDDKI and WT mice (Schaeffer collateral pathway LTP); assay: Long-term potentiation (LTP) in hippocampal slices perfused 60 min with test substance; details: for reversal of LTP impairment in FDDKI mice: sixty minute perfusion; for reversal of LTP deficit in FDDKI mice: 60 min perfusion
Description: All data are shown as mean±s.e.m. Statistical tests included two-way ANOVA for repeated measures and t-test when appropriate.

β- and α-cleavage of APP = assay: APP processing in HEK293-APP cells, sAPPβ and sAPPα in media by Western blot; details: for inhibition of β-cleavage of APP relative to N3: 5 μM, 8 hrs (FIG. 8B); for inhibition of APP processing: 25 μM (FIG. 8A) or 5 μM (FIG. 8B); for α-processing of APP (sAPPα in media) / β-cleavage of APP (sAPPβ in media): 25 μM, 8 hrs (FIG. 8A)
Description: WB of cell lysates detected APP and α-Tubulin. […] The data are shown as % of inhibition of β-secretase activity in samples without inhibitors.
BRI2-derived peptides and APP processing. APP-transfected HEK293 cells were incubated with the indicated peptides for 8 hrs.

APP = target: T1, APP (Homo sapiens, UniProt P05067); assay: α-Flag precipitation of Flagged peptides from HeLa/APP cells; type: binding; details: for binding to APP (co-precipitation): HeLa/APP cells, 40 μM Flagged peptide, 2 hours
T1 construct: expressed in transfected cells; host or cells: HeLa cells transfected with APP (HeLa-APP)
T1 sequence (P05067 18-770): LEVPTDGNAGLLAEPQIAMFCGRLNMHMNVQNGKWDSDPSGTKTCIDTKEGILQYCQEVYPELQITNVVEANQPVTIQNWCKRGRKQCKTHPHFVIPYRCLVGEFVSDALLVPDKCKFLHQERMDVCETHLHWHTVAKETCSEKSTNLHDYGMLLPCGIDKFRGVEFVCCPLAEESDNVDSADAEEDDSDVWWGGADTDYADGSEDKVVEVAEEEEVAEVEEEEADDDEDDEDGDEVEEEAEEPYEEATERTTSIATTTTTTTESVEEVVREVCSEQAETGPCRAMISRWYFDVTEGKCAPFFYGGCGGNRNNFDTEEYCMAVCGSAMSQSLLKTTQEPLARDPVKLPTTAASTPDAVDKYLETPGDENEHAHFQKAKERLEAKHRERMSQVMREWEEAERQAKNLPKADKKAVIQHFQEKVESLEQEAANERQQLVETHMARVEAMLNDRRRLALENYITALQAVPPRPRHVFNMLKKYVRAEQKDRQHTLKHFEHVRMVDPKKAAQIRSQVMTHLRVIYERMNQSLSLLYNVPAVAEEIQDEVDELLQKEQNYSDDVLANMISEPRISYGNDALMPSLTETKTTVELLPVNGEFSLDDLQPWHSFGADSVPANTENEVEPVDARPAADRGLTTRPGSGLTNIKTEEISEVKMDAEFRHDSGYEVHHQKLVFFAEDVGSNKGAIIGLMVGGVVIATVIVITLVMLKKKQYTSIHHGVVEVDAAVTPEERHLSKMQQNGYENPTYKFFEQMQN
Description: (§1) FIG. 8A-8I. 4A BRI2-derived peptide binds APP and inhibits β-cleavage of APP. (A-B) HEK293-APP cells were incubated with the indicated peptides (N1, N2, […] are SEQ ID NOs: 2, 3, 4, 5, 6, 7, 8, and 9, respectively). β- and α-cleavage of APP were quantified by measuring sAPPβ and sAPPα in media by WB. WB of cell lysates detected APP and α-Tubulin. (C-E) WB analysis of lysates (L) or α-Flag IP (IP) from HeLa/APP cells incubated for 2 hours with Flagged peptides. […] (G) Biotinylated cells were cultured as in (C). The reduced and not reduced samples are indicated (+red and −red, respectively). Lysates (L), α-Flag IP eluted with Flag-peptide (E), eluted sample precipitated with streptavidin-beads [both the fraction unbound (U) and bound (B) to streptavidin-beads], were probed for APP in WB. (H) Purified β-secretase was incubated with fluorescent β-secretase substrate for 30 minutes, resulting in β-cleavage that could be detected by fluorescence increase. […] The data are shown as % of inhibition of β-secretase activity in samples without inhibitors. (I) Model of N3-2A/MoBA activity.
Precipitation with FLAG-peptides. To prepare brain cells, mouse brains were washed in PBS and minced in dissociation buffer. After sedimentation and filtration, dissociated cells were cultured in Neurobasal media. Cells incubated with Flagged-peptides were lysed and precipitated with Flag-M2-agarose-beads as described (Matsuda et al, 2005). Bound proteins were eluted with 100 μg/ml of FLAG peptide.
A BRI2-derived peptide binds APP and inhibits β-cleavage of APP. It was tested whether peptides spanning this domain duplicated BRI2's function. […] Next it was examined if N3-2A (SEQ ID NO:5) binds APP. HeLa-APP cells were cultured with or without N3-2A fused to a C-terminal Flag epitope (N3-2A-F). After 2 hrs of incubation, cell lysates were precipitated with α-Flag-agarose-beads and co-precipitated molecules were eluted with a Flag-peptide.

endogenous APP = target: T2, endogenous APP (Mus musculus, UniProt P12023); assay: α-Flag precipitation of Flagged peptide from cultured brain cells; type: binding
T2 construct: endogenous in cells; host or cells: dissociated mouse brain cells cultured in Neurobasal media
T2 sequence (P12023 18-770): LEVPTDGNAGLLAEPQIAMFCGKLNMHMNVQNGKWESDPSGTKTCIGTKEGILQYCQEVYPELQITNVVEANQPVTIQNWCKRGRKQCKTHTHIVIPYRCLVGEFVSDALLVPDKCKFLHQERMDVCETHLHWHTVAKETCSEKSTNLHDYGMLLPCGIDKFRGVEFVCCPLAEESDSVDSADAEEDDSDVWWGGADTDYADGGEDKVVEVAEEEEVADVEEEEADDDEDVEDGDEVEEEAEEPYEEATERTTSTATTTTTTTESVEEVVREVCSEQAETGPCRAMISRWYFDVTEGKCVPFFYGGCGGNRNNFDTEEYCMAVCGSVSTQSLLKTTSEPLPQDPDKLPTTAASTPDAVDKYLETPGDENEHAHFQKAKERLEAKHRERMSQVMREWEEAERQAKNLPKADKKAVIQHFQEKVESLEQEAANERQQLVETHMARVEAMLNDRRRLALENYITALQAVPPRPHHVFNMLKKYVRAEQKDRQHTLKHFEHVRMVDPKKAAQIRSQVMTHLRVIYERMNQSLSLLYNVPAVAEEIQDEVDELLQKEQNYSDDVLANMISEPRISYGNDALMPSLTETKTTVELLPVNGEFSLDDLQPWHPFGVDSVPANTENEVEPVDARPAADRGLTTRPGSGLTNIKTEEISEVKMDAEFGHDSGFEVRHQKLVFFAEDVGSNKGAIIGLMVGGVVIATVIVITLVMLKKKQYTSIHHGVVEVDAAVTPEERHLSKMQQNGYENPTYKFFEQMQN
Description: as §1
Precipitation with FLAG-peptides. To prepare brain cells, mouse brains were washed in PBS and minced in dissociation buffer. After sedimentation and filtration, dissociated cells were cultured in Neurobasal media. […]

γ-secretase = details: two values given, not explained; cited from earlier work
purified β-secretase = target: T3, purified β-secretase (Homo sapiens, UniProt P56817); assay: β-secretase FRET activity assay with purified enzyme; type: biochemical; details: fluorescent β-secretase substrate, 30 minutes
T3 construct: purchased Invitrogen
T3 sequence (P56817 46-501): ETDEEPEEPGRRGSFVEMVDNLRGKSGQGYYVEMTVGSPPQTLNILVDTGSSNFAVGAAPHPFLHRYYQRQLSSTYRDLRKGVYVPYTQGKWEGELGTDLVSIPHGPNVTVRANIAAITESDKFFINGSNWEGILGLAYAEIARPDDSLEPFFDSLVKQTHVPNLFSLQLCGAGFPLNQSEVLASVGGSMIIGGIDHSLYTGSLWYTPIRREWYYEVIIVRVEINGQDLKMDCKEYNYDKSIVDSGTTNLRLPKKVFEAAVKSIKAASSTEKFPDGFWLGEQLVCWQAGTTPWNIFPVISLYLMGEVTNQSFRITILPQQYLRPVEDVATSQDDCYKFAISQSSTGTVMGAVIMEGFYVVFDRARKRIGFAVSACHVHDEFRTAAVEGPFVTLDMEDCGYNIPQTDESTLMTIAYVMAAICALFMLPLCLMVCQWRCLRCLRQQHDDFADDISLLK
Description: WB of cell lysates detected APP and α-Tubulin. (C-E) WB analysis of lysates (L) or α-Flag IP (IP) from HeLa/APP cells incubated for 2 hours with Flagged peptides. […] (G) Biotinylated cells were cultured as in (C). The reduced and not reduced samples are indicated (+red and −red, respectively). […] The data are shown as % of inhibition of β-secretase activity in samples without inhibitors.

[3] = system: primary hippocampal neuron cultures; details: cited from earlier work
rat models of stroke = details: cited from earlier work
[4] = FDDKI mice, 1 μl of PBS/500 μM in lateral ventricle, 1 hr before training and testing
[5] = FDDKI mice, 1 μl of PBS/100 μM in lateral ventricle

## Z-L-E(OMe)-H-D(OMe)-FMK.TFA ({code Z}-L[E(OMe)]H[D(OMe)]-CH2F; reading uncertain; also: TFA salt, printed as Z-L-E(OMe)-H-D(OMe)-FMK.TFA) [Z-LEHD-FMK]
[1]; [4]
  rescue of memory deficit of FDDKI mice (NOR): transiently rescue this memory deficit
[2]; FDDKI slices, 2 μM
  reversal of LTP impairment in FDDKI mice: reverse LTP impairment in FDDKI mice
[2]; WT untreated vs. WT treated with Z-LEHD-FMK
  effect on LTP of WT mice: does not alter LTP of WT mice

## ADVYYCGLKY (FRAGMENT DIRECTED TO HOMO SAPIENS PROTEIN) [N3-1A]
β- and α-cleavage of APP
  inhibition of β-cleavage of APP relative to N3: stronger inhibitor of APP processing by β-secretase

## ILNEPSADAP (FRAGMENT DIRECTED TO HUMAN PROTEIN) [N6]
β- and α-cleavage of APP
  inhibition of APP processing: does not inhibit APP processing
[2]; FDDKI slices, 1 μM
  reversal of LTP deficit in FDDKI mice: does not rescue the LTP deficit

## N3-2A-F: N3-2A fused to a C-terminal Flag epitope (DAVYYCGLKY-{Flag epitope})
APP
  binding to APP (co-precipitation): binds mature APP
Endogenous APP
  binding to endogenous APP: binds endogenous APP

## N3-4A-F: Flagged single amino acid N3 mutant (DDVAYCGLKY-{Flag epitope})
APP
  binding to APP (co-precipitation): did not bind APP
β- and α-cleavage of APP
  inhibition of APP processing: do not inhibit APP processing

## Cbz-Val-Ala-Asp(OMe)-CH2F [Z-VAD-FMK]
[2]; FDDKI slices, 10 μM
  reversal of LTP impairment in FDDKI mice: reverse LTP impairment in FDDKI mice

## DDVYYCGLKYIKDD (FRAGMENT DIRECTED TO HUMAN PROTEIN) [N8]
β- and α-cleavage of APP
  α-processing of APP (sAPPα in media): moderately decreased α-processing of APP
  β-cleavage of APP (sAPPβ in media): strongly reduced β-cleavage

## C[C@H](NC(=O)Cc1cc(F)cc(F)c1)C(=O)N[C@H]1N=C(c2ccccc2)c2ccccc2N(C)C1=O [compound-E]
γ-secretase
  IC50: 300 pM and 240 pM
[1]; FDDKI mice, 1 μl of PBS/300 nM compound-E
  rescue of memory deficit of FDDKI mice (NOR): does not
[1]; FDDKI mice, ten-fold higher dose, 1 μl of PBS/3 μM compound-E
  rescue of memory deficit of FDDKI mice (NOR): did not correct the memory deficit of Danish mice
[1]; WT mice, 1 μl of PBS/300 nM compound-E
  performance of WT animals (NOR): nor altered performance of WT animals
[1]; WT mice, ten-fold higher dose, 1 μl of PBS/3 μM compound-E
  memory of WT mice (NOR): showed a trend, though not statistically significant, toward memory impairment
[2]; FDDKI slices, 1 nM
  rescue of LTP defect in FDDKI samples: does not rescue the LTP defect in FDDKI samples
[2]; WT slices, compound-E 1 nM
  effect on LTP of WT mice: do not alter LTP of WT mice

## DAVYYCGLKY (FRAGMENT DIRECTED TO A HOMO SAPIENS PROTEIN) [N3-2A]
APP; HeLa/APP cells (FIG. 8C, D)
  binding to β-CTF: does not bind β-CTF
APP; untagged peptide added to media containing 40 μM N3-2A-F
  competition for binding to APP: could compete for binding to APP
[1]; [5]
  rescue of memory deficit of FDDKI mice (NOR): transiently rescue this memory deficit
β- and α-cleavage of APP; 5 μM (FIG. 8B)
  α-processing of APP: did not overtly inhibit α-processing of APP
β- and α-cleavage of APP
  inhibition of β-cleavage of APP relative to N3: stronger inhibitor of APP processing by β-secretase
Purified β-secretase
  inhibition of β-secretase activity: did not inhibit the activity of purified β-secretase
[2]; FDDKI slices, 10 nM
  reversal of LTP deficit in FDDKI mice: reversed the LTP deficit of FDDKI samples
[2]; FDDKI slices, 1 μM
  reversal of LTP deficit in FDDKI mice: reversed the LTP deficit of FDDKI samples
[2]; WT slices, 1 μM
  effect on LTP of WT mice: does not alter LTP of WT mice

## Pen1-XBIR3: XIAP-BIR3 domain disulfide-linked to cell-penetrating peptide Penetratin1; specific inhibitor of active caspase-9
[1]; FDDKI mice, NOR without treatments after 5 days of rest
  persistence of therapeutic effect post injection: at least 5 days
[1]; FDDKI mice, lateral ventricle, 2 μl of PBS/23 μM Pen1-XBIR3 or 2 μl of PBS/16 μM Pen1-CrmA, 1 h before training and testing
  rescue of memory deficit of FDDKI mice (NOR): rescues this memory deficit
[1]; FDDKI mice, no further treatments
  therapeutic effect in NOR test repeated 5 days later: still significant
[1]; WT mice, 2 μl of PBS/23 μM Pen1-XBIR3 or 2 μl of PBS/16 μM Pen1-CrmA
  memory in WT animals (NOR): Neither Pen1-XBIR3 nor Pen1-CrmA altered memory in WT animals
[3]
  caspase-9 dependent cell death: inhibits caspase-9 dependent cell death
Rat models of stroke; direct parenchymal or intranasal delivery, rat
  therapeutic effect: therapeutically effective
Rat models of stroke; in vivo model of cerebral ischemia
  caspase-9 block after delivery to the CNS: blocks caspase-9
Rat models of stroke; one dose
  functional protection against ischemia post-infarction: 3 weeks

## DDVYYCGLKY (FRAGMENT DIRECTED TO A HOMO SAPIENS PROTEIN) [N3]
β- and α-cleavage of APP
  α-processing of APP (sAPPα in media): moderately decreased α-processing of APP
  β-cleavage of APP (sAPPβ in media): strongly reduced β-cleavage

## β-secretase-inhibitor IV
[1]; [5]
  rescue of memory deficit of FDDKI mice (NOR): transiently rescue this memory deficit
[2]; FDDKI slices, 50 nM
  rescue of LTP impairment in FDDKI mice: rescues LTP impairment in FDDKI mice
[2]; WT slices, β-secretase inhibitor IV 50 nM
  effect on LTP of WT mice: do not alter LTP of WT mice

## Z-D(OMe)-E(OMe)-V-D(OMe)-FMK [Z-DEVD-FMK]
[1]; [4]
  rescue of memory deficit of FDDKI mice (NOR): does not
[1]; WT mice, 1 μl of PBS/500 μM in lateral ventricle
  performance of WT animals (NOR): nor altered performance of WT animals
